According to patent publication US12043870B2, “Methods and compositions for detecting and modulating an immunotherapy resistance gene signature in cancer” (The Broad Institute, Inc., priority 2017, dated 2024):
“And” between values parts separate entries of the source, which are not always exact repeats. Equal entries are not always repeated.

What was measured:
IGR37 = assay: scRNA-seq of melanoma cell line before and after treatment with abemaciclib for 1 week; format: cell-based, human; conditions: IGR37 (RB1-sufficient); abemaciclib 1 week; 10% prior to treatment
Text: (§1) To determine this effect in melanoma, Applicants identified melanoma cell lines in the Cancer Cell Line Encyclopedia (CCLE) with the strongest expression of the uICR signature, including IGR37, UACC257 (both RB-sufficient) and A2058 (RB-deficient). Applicants performed scRNA-seq on these cell lines before and after treatment with abemaciclib for 1 week (FIG. 41). In both IGR37 and UACC257, Applicants saw a decrease in the expression of the uICR state (P<3.59*10^−34, one-sided t-test). […] This population decreased from 10% before treatment (2,454 cells) to 2% in the post-treatment condition (1,570 cells).
(§2) To test this hypothesis, Applicants studied the effect of abemaciclib on the immune resistance program in melanoma cell lines. […] Applicants profiled each cell line with scRNA-seq before and after treatment with abemaciclib for 1 week (FIGS. 49D-E), analyzing over 23,000 cells in these and follow-up conditions (below). […]
(§3) Established melanoma cell lines […] and A2058 were acquired from the Cancer Cell Line Encyclopedia (CCLE) from the Broad Institute. […] Cells were lifted off culture dishes using Versene solution (Life Technologies), washed twice in 1×PBS, counted and resuspended in PBS supplemented with 0.04% BSA for loading for scRNA-seq with the 10X Genomics platform.

UACC257 = assay: as above; format: cell-based, human; conditions: UACC257 (RB1-sufficient); abemaciclib 1 week; 10% prior to treatment
Text: as §1, §2, §3

[1] = test system: human melanoma cells (Melanoma cell line 2686); assay: Abemaciclib doubling time and cytostatic effect; format: cell-based; conditions: abemaciclib 500 nM
Procedure: Cell number and viability were determined using the Countess™ II FL Automated Cell Counter (ThermoFisher) on days 2, 4 and 6. All experiments were performed in triplicates. Cell doubling per 24 hours was determined based on cell numbers comparing cells seeded and on day 6 using the following formula: duration (in days) x log(2)/log(final cell number) - log(initial cell number).

melanoma cells = assay: Measurement of 40 human cytokines/chemokines in conditioned media of abemaciclib or DMSO treated cancer cells

`CCN1CCN(Cc2ccc(Nc3ncc(F)c(-c4cc(F)c5nc(C)n(C(C)C)c5c4)n3)nc2)CC1` [abemaciclib] was tested, and the “fraction of cells with exceptionally strong expression of the immune resistance (uICR) program ("immune resistant" cells) post-treatment” value (IGR37) was 2%, the “fraction of cells with exceptionally strong expression of the immune resistance program ("immune resistant" cells) post-treatment” value (UACC257) was 1% and 0.6% and the cytotoxic effects [1] was “do not find significant cytotoxic effects”. The rate of proliferation ([1]; DMSO 0.64) was 0.3 doublings/24 hrs, the “Fold change (abemaciclib vs. DMSO treatment)” value (shortened to “Fold change”) (melanoma cells; Hu 6Ckine/CCL21) was 0.9700 and the “Fold change” value (melanoma cells; Hu CTACK/CCL27) was 1.0834. For the same compound, the “Fold change” value (melanoma cells; Hu ENA-78/CXCL5) was 1.0188, the “Fold change” value (melanoma cells; Hu Eotaxin-3/CCL26) was 3.0279 and the “Fold change” value (melanoma cells; Hu Eotaxin/CCL11) was 0.9599. For the same compound, the “Fold change” value (melanoma cells; Hu Fractalkine/CX3CL1) was 2.1863, the “Fold change” value (melanoma cells; Hu GCP-2/CXCL6) was 0.6386 and the “Fold change” value (melanoma cells; Hu GM-CSF) was 1.0191. The “Fold change” value (melanoma cells; Hu Gro-a/CXCL1) was 0.9135, the “Fold change” value (melanoma cells; Hu Gro-b/CXCL2) was 0.7471 and the “Fold change” value (melanoma cells; Hu I-309/CCL1) was 1.0389. For the same compound, the “Fold change” value (melanoma cells; Hu I-TAC/CXCL11) was 0.9524, the “Fold change” value (melanoma cells; Hu IL-1b) was 1.0719 and the “Fold change” value (melanoma cells; Hu IL-2) was 0.5882. For the same compound, the “Fold change” value (melanoma cells; Hu IL-4) was 1.6605, the “Fold change” value (melanoma cells; Hu IL-6) was 0.3788 and the “Fold change” value (melanoma cells; Hu IL-8) was 0.7253. The “Fold change” value (melanoma cells; Hu IL-10) was 1.0079, the “Fold change” value (melanoma cells; Hu IL-16) was 0.8482 and the “Fold change” value (melanoma cells; Hu IP-10/CXCL10) was 0.9103. For the same compound, the “Fold change” value (melanoma cells; Hu MCP-1/CCL2) was 0.7175, the “Fold change” value (melanoma cells; Hu MCP-2/CCL8) was 1.0388 and the “Fold change” value (melanoma cells; Hu MCP-3/CCL7) was 1.0422. The “Fold change” value (melanoma cells; Hu MCP-4/CCL13) was 0.8887, the “Fold change” value (melanoma cells; Hu MDC/CCL22) was 1.1142 and the “Fold change” value (melanoma cells; Hu MIF) was 2.9587. For the same compound, the “Fold change” value (melanoma cells; Hu MIP-1a/CCL3) was 1.0350, the “Fold change” value (melanoma cells; Hu MIP-3a/CCL20) was 3.4000 and the “Fold change” value (melanoma cells; Hu MIP-3b/CCL19) was 0.8717. The “Fold change” value (melanoma cells; Hu MIP-1d/CCL15) was 1.0809, the “Fold change” value (melanoma cells; Hu SCYB16/CXCL16) was 1.1278 and the “Fold change” value (melanoma cells; Hu SDF1a + b/CXCL12) was 0.8885. The “Fold change” value (melanoma cells; Hu TARC/CCL17) was 1.0104, the “Fold change” value (melanoma cells; Hu TECK/CCL25) was 1.5510 and the “Fold change” value (melanoma cells; Hu TNF-a) was 0.7465.
